From patent US11840686B2, “Modulation of prekallikrein (PKK) expression” (Ionis Pharmaceuticals, Inc., priority 2013, dated 2023)
“And” between values parts separate entries of the source, which are not always exact repeats. Identical values can stand only once. Strand notation (5' to 3'): a small letter for the sugar, then the base; units joined by * are phosphorothioate-linked, units joined directly phosphodiester-linked; [ ] holds rarer units or linkages, { } end groups; capitals alone tell only the bases. e = 2'-O-(2-methoxyethyl) (MOE); k = constrained ethyl (cEt); [5mC] = 5-methylcytosine; d = 2'-deoxy (DNA)

What was measured:
human PKK mRNA [1] = test: Antisense inhibition of human PKK mRNA in HepaRG cells, 1,000 nM, MOE/deoxy/cEt oligonucleotides (Example 3); format: cell-based
Procedure, shortened: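 Readout is percent PKK mRNA reduction against untreated controls, by real-time PCR (RTS3454) adjusted for total RNA via RIBOGREEN. Oligonucleotides, phosphorothioate gapmers of 16 nucleosides with cEt, MOE and deoxy sugars, were delivered at 1,000 nM by electroporation to 20,000 HepaRG cells/well for roughly 24 h.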

human PKK mRNA [2] = test: Dose-dependent antisense inhibition of human PKK in HepaRG cells, 0.11-3.00 uM (Example 6); format: cell-based; conditions: for IC50: 0.11-3.00 μM; for percent inhibition of PKK mRNA, 0.11 μM / percent inhibition of PKK mRNA, 0.33 μM / percent inhibition of PKK mRNA, 1.00 μM / percent inhibition of PKK mRNA, 3.00 μM: electroporation, approx. 16 hours, relative to untreated control cells
Procedure: Cells were plated at a density of 20,000 cells per well and transfected using electroporation with 0.11 μM, 0.33 μM, 1.00 μM, and 3.00 μM concentrations of antisense oligonucleotide. After a treatment period of approximately 16 hours, RNA was isolated from the cells and PKK mRNA levels were measured by quantitative real-time PCR. Human PKK primer probe set RTS3454 was used to measure mRNA levels. PKK mRNA levels were adjusted according to total RNA content, as measured by RIBOGREEN®. The antisense oligonucleotides were tested in a series of experiments that had similar culture conditions.
The half maximal inhibitory concentration (IC50) of each oligonucleotide is also presented.

[3] = Table 27, HepaRG cells, 1,000 nM antisense oligonucleotide, human PKK mRNA
[4] = HepaRG cells, electroporation with 1,000 nM antisense oligonucleotide, approximately 24 hours, primer probe set RTS3454, relative to untreated control cells, experiment of Table 23
[5] = HepaRG cells, electroporation with 1,000 nM antisense oligonucleotide, approximately 24 hours, primer probe set RTS3454, relative to untreated control cells, experiment of Table 24
[6] = PKK mRNA, HepaRG cells, 1,000 nM antisense oligonucleotide, Table 31
[7] = Table 20, HepaRG cells, electroporation with 1,000 nM antisense oligonucleotide, approximately 24 hours, PKK mRNA by RT-PCR (RTS3454), relative to untreated control cells
[8] = Table 21 experiment, HepaRG cells, electroporation with 1,000 nM antisense oligonucleotide, approx. 24 hours, PKK mRNA by RT-PCR (RTS3454), relative to untreated control cells
[9] = Table 22 experiment, HepaRG cells, electroporation with 1,000 nM antisense oligonucleotide, approx. 24 hours, PKK mRNA by RT-PCR (RTS3454), relative to untreated control cells
[10] = Table 30, human PKK mRNA, HepaRG cells, 1,000 nM antisense oligonucleotide

Substance | % inhibition (human PKK mRNA [1]; [3]) [%] | IC50 (human PKK mRNA [2]) | percent inhibition of PKK mRNA, 0.11 μM (human PKK mRNA [2]) [%] | percent inhibition of PKK mRNA, 0.33 μM (human PKK mRNA [2]) [%] | percent inhibition of PKK mRNA, 1.00 μM (human PKK mRNA [2]) | percent inhibition of PKK mRNA, 3.00 μM (human PKK mRNA [2]) | % inhibition (human PKK mRNA [1]; HepaRG cells, 1,000 nM antisense oligonucleotide, Table 29) [%] | % inhibition (human PKK mRNA [1]; HepaRG cells, electroporation with 1,000 nM antisense oligonucleotide, approx. 24 hours, PKK mRNA by RT-PCR (RTS3454), relative to untreated control cells, Table 25 experiment) [%] | % inhibition (human PKK mRNA [1]; HepaRG cells, electroporation with 1,000 nM antisense oligonucleotide, approx. 24 hours, PKK mRNA by RT-PCR (RTS3454), relative to untreated control cells, Table 26 experiment) [%] | % inhibition (human PKK mRNA [1]; [4]) [%] | % inhibition (human PKK mRNA [1]; [5]) [%] | % inhibition (human PKK mRNA [1]; [6]) [%] | % inhibition (human PKK mRNA [1]; Table 19, HepaRG cells, electroporation with 1,000 nM antisense oligonucleotide, approximately 24 hours, PKK mRNA by RT-PCR (RTS3454), relative to untreated control cells) [%] | % inhibition (human PKK mRNA [1]; [7]) [%] | % inhibition (human PKK mRNA [1]; [8]) [%] | % inhibition (human PKK mRNA [1]; [9]) [%] | % inhibition (human PKK mRNA [1]; Table 28, HepaRG cells, 1,000 nM antisense oligonucleotide, human PKK mRNA) [%] | % inhibition (human PKK mRNA [1]; [10]) [%]
548338 (antisense eA*eT*kG*dA*dA*dA*d[5mC]*dT*dG*dT*dG*dG*d[5mC]*kT*k[5mC]*eG) [compound 548338] | 80 | 200 nM | 41 | 58 | 79% | 95% | – | – | – | – | – | – | – | – | – | – | – | –
547747 (eT*e[5mC]*kA*d[5mC]*dT*dG*dT*dA*d[5mC]*dT*dA*dG*dT*kT*kT*e[5mC]) [compound 547747] | 67 | 400 nM and 300 nM and 500 nM | – | – | 81% and 90% and 72% and 85% | 89% and 92% and 90% and 96% | 64 | 66 | 80 | 83 | 80 | 88 | 95 | 84 | 88 | 91 | 64 | 64
548668 (antisense eG*eG*kG*dA*dG*d[5mC]*dT*dT*dT*d[5mC]*dA*dT*dG*kG*k[5mC]*eT) [compound 548668] | – | 700 nM | 10 | 30 | 61% | 84% | – | – | – | – | – | 68 | – | – | – | – | – | –
547769 (antisense eT*eT*kG*dG*dA*dG*dG*dT*dG*dA*dG*dT*d[5mC]*kT*k[5mC]*eT) [compound 547769] | – | 600 nM | 12 | 17 | 80% | 96% | – | – | – | – | – | – | – | – | 81 | – | – | –
547849 (antisense eA*eA*kT*dG*dT*d[5mC]*dT*d[5mC]*dG*dA*dT*dG*dG*k[5mC]*kA*eA) [compound 547849] | – | 300 nM | 36 | 52 | 67% | – | – | – | – | – | – | – | – | 79 | – | 90 | – | –
547998 (antisense e[5mC]*eT*kT*dG*dT*dG*dT*d[5mC]*d[5mC]*d[5mC]*dA*dT*dA*k[5mC]*kG*e[5mC]) [compound 547998] | – | – | 55 | 73 | 91% | 91% | – | – | – | – | 82 | – | – | – | – | – | – | –
548061 (eG*e[5mC]*kT*dT*dG*dT*dG*dT*d[5mC]*dA*d[5mC]*d[5mC]*dT*kT*kT*eG; antisense) [compound 548061] | – | 400 nM | 26 | 61 | 59% | – | – | – | – | – | 86 | – | – | – | – | – | – | –
547947 (eG*eG*kA*dA*d[5mC]*dT*dT*dG*dG*dT*dG*dT*dG*k[5mC]*k[5mC]*eA; antisense) [compound 547947] | – | 300 nM | 24 | 58 | 81% | 93% | – | – | – | 80 | – | – | – | – | – | – | – | –
547997 (antisense eT*eT*kG*dT*dG*dT*d[5mC]*d[5mC]*d[5mC]*dA*dT*dA*d[5mC]*kG*k[5mC]*eA) [compound 547997] | – | 200 nM | 39 | 68 | – | 82% | – | – | – | – | 89 | – | – | – | – | – | – | –
548424 (antisense e[5mC]*eA*kG*dT*dA*dT*d[5mC]*dA*d[5mC]*dT*dG*dT*d[5mC]*k[5mC]*kT*eA) [compound 548424] | – | 300 nM | 17 | 67 | 86% | 72% | – | – | – | – | – | – | – | – | – | – | – | 90
